Literature values, collected in paper PMC12676331 (ACS Omega, 2025).

Experiments:
G-protein = conditions: in vitro and in vivo; ref number not given
P23H rod opsin = conditions: ref number not given
rod opsin mutants = conditions: in vitro; ref number not given
[1] = tested on: T17M Rho mouse model of RP; conditions: ref number not given

## 11-cis-7-membered-ring-retinal
G-protein
  G-protein activation: does not activate G-protein
P23H rod opsin
  maturation and membrane expression of P23H rod opsin: improve the maturation and membrane expression of P23H rod opsin

## CC(=C/C(=O)O)/C=C/C=C(\C)C1C=C2C(C)(C)CCCC2(C)O1 (stereo not drawn) [13-cis-5,8-ERA, 8-epoxy-13-cis-retinoic acid]
Rod opsin mutants
  folding and membrane trafficking of rod opsin mutants: promoted proper folding and membrane trafficking

## 11-cis-6-membered-ring-retinal
G-protein
  G-protein activation: can partially activate G-protein

## CC1=C(/C=C/C(=O)N2CCN(C(N)=O)CC2)C(C)(C)CCC1 [SRD005825]
Rod opsin mutants
  folding and membrane trafficking of rod opsin mutants: promoted proper folding and membrane trafficking
[1]
  photoreceptor survival: improved photoreceptor survival
